Reference: article PMC11851430, “Workflow for E3 Ligase Ligand Validation for PROTAC Development” (ACS Chemical Biology, 2025)

How the values were obtained:
[1] = target: T1, MAPK13A (Homo sapiens, UniProt O15264); assay: DSF assay; type: binding; conditions: 20 µM compound
T1 construct: purchased in-house DSF panel (SGC-style construct names; the trailing A/B is a construct suffix)
T1 sequence (O15264 1-365): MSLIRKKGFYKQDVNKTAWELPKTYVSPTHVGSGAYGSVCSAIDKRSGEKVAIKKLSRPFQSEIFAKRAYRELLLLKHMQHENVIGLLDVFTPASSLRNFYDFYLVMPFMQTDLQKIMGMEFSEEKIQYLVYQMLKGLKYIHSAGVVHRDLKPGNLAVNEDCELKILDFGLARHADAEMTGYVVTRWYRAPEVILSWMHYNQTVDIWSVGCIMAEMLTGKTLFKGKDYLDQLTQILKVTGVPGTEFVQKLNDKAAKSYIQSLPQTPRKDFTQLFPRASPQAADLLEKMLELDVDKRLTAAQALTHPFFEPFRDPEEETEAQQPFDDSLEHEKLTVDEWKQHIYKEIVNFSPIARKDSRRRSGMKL

[2] = target: GPRK5A (Homo sapiens, UniProt P34947); assay: DSF assay; type: binding; conditions: 20 µM compound
Sequence of GPRK5A (P34947 186-514 limits assumed): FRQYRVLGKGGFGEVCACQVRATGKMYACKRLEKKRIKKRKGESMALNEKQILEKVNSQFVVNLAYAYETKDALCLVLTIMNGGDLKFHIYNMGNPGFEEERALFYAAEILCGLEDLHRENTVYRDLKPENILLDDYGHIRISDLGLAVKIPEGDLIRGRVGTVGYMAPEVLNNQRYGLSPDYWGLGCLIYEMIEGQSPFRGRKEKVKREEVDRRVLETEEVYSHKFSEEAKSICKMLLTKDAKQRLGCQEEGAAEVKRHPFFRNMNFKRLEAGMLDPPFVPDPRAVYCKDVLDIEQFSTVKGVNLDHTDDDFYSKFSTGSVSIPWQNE

[3] = target: T2, MELKA (Homo sapiens, UniProt Q14680); assay: DSF assay; type: binding; conditions: 20 µM compound
T2 construct: purchased in-house DSF panel (SGC-style construct names; the trailing A/B is a construct suffix)
T2 sequence (Q14680 1-340): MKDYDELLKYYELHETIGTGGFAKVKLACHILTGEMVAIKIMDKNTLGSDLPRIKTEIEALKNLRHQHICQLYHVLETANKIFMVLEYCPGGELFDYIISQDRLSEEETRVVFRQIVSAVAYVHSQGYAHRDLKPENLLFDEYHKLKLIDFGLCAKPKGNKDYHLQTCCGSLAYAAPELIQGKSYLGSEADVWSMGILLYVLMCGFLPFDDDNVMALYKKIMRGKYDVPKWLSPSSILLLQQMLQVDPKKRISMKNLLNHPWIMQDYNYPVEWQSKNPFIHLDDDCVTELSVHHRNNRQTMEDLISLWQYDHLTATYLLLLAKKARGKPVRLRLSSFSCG

[4] = target: T3, NEK7A (Homo sapiens, UniProt Q8TDX7); assay: DSF assay; type: binding; conditions: 20 µM compound
T3 construct: purchased in-house DSF panel (SGC-style construct names; the trailing A/B is a construct suffix)
T3 sequence (Q8TDX7 34-299): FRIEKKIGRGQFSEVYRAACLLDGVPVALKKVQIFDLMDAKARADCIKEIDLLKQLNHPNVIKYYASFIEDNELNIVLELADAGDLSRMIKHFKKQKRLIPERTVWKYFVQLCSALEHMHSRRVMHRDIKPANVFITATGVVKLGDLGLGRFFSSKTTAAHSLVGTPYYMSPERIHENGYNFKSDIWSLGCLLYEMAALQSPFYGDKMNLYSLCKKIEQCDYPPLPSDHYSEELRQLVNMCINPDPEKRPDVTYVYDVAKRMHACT

[5] = target: T4, MAP3K5A (Homo sapiens, UniProt Q99683); assay: DSF assay; type: binding; conditions: 20 µM compound
T4 construct: purchased in-house DSF panel (SGC-style construct names; the trailing A/B is a construct suffix)
T4 sequence (Q99683 659-951): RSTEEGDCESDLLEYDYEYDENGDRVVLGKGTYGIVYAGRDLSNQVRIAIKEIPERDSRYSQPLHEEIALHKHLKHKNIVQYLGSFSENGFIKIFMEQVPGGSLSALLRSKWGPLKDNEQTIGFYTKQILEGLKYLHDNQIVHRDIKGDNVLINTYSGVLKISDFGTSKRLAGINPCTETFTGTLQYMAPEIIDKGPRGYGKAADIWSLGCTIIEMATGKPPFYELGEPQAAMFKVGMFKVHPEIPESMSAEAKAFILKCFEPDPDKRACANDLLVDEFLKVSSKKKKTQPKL

[6] = target: T5, SRCA (Homo sapiens, UniProt P12931); assay: DSF assay; type: binding; conditions: 20 µM compound
T5 construct: purchased in-house DSF panel (SGC-style construct names; the trailing A/B is a construct suffix)
T5 sequence (P12931 254-536): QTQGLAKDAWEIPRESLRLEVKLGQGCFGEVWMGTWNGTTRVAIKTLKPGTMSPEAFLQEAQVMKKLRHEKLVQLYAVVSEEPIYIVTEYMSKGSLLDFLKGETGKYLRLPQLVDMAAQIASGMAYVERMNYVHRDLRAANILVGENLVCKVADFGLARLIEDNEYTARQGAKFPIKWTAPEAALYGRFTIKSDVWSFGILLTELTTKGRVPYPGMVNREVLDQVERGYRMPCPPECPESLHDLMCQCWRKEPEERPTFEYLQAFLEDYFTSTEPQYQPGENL

[7] = target: T6, BMXA (Homo sapiens, UniProt P51813); assay: DSF assay; type: binding; conditions: 20 µM compound
T6 construct: purchased in-house DSF panel (SGC-style construct names; the trailing A/B is a construct suffix)
T6 sequence (P51813 411-675): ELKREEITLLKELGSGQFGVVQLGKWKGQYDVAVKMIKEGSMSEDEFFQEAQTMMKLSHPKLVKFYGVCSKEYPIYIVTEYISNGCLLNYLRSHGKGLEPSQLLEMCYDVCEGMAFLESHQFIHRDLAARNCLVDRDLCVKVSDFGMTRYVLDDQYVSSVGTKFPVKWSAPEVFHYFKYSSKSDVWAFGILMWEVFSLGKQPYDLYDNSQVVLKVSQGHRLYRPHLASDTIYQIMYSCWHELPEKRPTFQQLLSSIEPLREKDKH

[8] = target: T7, BRAFA (Homo sapiens, UniProt P15056); assay: DSF assay; type: binding; conditions: 20 µM compound
T7 construct: purchased in-house DSF panel (SGC-style construct names; the trailing A/B is a construct suffix)
T7 sequence (P15056 448-723): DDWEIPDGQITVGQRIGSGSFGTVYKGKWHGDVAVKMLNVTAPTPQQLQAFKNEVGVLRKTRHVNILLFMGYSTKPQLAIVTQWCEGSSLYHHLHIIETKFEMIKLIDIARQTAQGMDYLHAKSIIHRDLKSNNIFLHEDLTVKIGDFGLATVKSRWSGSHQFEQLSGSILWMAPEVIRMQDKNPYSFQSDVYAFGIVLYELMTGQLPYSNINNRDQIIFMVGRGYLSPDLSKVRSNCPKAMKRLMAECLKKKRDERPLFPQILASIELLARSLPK

[9] = target: T8, DYRK1A (Homo sapiens, UniProt Q13627); assay: DSF assay; type: binding; conditions: 20 µM compound
T8 construct: purchased in-house DSF panel (SGC-style construct names; the trailing A/B is a construct suffix)

[10] = target: T9, ITK (Homo sapiens, UniProt Q08881); assay: Western blot assay; type: cell-based; conditions: Jurkat cells, 6 h
T9 construct: endogenous in cells; host or cells: Jurkat
T9 sequence (Q08881 1-620): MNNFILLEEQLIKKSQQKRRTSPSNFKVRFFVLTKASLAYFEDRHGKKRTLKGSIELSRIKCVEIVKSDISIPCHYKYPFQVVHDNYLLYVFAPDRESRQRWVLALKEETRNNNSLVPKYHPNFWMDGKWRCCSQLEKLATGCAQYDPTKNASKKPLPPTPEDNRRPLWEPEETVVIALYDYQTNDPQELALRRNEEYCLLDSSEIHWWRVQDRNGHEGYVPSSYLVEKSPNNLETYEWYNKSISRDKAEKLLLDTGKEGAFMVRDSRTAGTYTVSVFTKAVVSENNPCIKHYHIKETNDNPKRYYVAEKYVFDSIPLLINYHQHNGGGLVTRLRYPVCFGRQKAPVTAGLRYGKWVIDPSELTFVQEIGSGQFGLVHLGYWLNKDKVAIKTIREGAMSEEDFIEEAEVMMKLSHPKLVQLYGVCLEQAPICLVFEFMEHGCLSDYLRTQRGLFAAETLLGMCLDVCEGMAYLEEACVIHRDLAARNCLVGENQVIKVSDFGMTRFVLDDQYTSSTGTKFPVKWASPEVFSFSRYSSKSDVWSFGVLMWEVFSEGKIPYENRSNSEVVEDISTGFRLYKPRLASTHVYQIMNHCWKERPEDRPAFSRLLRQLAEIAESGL
Description: Two mL of Jurkat cells were seeded into 6 well plates (Greiner) at a density of 5·10 5 cells/mL.
The following day, cells were treated with compounds at according concentrations or DMSO for 6 hours and then lysed with 6 M Urea at 4 °C for 20 minutes. The lysates were centrifuged for 15 minutes at 16000 g and the supernatant was collected to perform the Western-Blot.
Protein quantification was performed using nanodrop One. The SDS samples were prepared […]
The samples were separated by a BIS-TRIS polyacrylamide gel polyacrylamide gel, 100 V for 1:45) followed by transfer to PVDF membranes (Millipore) at 350 mA for 140 minutes. The membranes were blocked using 5%wt/vol BSA (in TBS-T, 20 mM Tris-HCl, pH 7.5, 150 mM NaCl and 0.1% (vol/vol) Tween 20) at room temperature for 1 hour.
(§1) The blots were incubated with respective primary antibodies at 1:1000 dilution (Cell Signaling technologies: Aurora A (D3E4Q), ITK (2F12) and GAPDH (D4C6R)) at 4 °C overnight. The blots were washed with TBS-T thrice and incubated with 1:5000 dilution of horseradish peroxidase (HRP)-labelled respective secondary antibodies (Cell Signaling technologies, Anti- […]
(§2) The blots were washed with TBS-T thrice and then incubated with chemiluminescent HRP substrate (Bio-Rad) for 2 minutes. The blots were imaged and the signals were detected using the Amersham ImageQuant 800 (Cytiva).
(§3) Cell culture. Human MV4-11 ([…]) and human Jurkat ([…]) cells were cultured in RPMI- […]
(§4) °C in 5% CO2. Both media were supplemented with 10% FBS and 1% penicillin/streptomycin. […]

[11] = target: T10, AURKA^HiBiT (Homo sapiens, UniProt O14965); assay: HiBiT assay, MV4-11 cells expressing AURKA^HiBiT; type: cell-based; conditions: 6 h; for rescue of AURKA degradation by cotreatment with proteasome inhibitor MG132 / rescue of AURKA levels by cotreatment with neddylation inhibitor MLN4924: MV4-11 AURKA^HiBiT cells; for AURKA^HiBiT protein levels: MV4-11 cells
T10 construct: expressed in transfected cells
T10 sequence (O14965 1-403): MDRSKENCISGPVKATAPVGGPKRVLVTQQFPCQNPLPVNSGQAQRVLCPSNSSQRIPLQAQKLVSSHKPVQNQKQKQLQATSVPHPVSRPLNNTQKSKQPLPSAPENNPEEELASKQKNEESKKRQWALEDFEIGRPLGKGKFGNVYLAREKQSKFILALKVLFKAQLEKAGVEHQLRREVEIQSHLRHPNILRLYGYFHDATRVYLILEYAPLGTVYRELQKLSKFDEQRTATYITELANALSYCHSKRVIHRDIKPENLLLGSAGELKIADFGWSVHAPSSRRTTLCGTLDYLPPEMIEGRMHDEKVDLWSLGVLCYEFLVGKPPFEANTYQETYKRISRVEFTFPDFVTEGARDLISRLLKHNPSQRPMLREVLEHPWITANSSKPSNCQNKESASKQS
Description: as §1, §2, §3, §4
Cell line generation. The stable cell line MV4-11 AURORA−HiBiT was generated as previously described.14 Lentiviral infection was used to generate the stable Jurkat HiBiT cell line. […] HiBiT Measurements. HiBiT assay was performed as described previously. 14 Briefly, MV4-11 and Jurkat HiBiT cells were seeded and treated with compounds for the indicated time. Nano-Glo HiBiT Lytic Detection System (Promega) was used for the assay and luminescence was measured on a Tecan Spark Multiplate reader (Tecan). DC50s were calculated using the dose-response (four parameters) equation in Prism (GraphPad).

Row | SMILES | ΔTm at 20 µM [1] [°C] | ΔTm at 20 µM [2] [°C] | ΔTm at 20 µM [3] [°C] | ΔTm at 20 µM [4] [°C] | ΔTm at 20 µM [5] [°C] | ΔTm at 20 µM [6] [°C] | ΔTm at 20 µM [7] [°C] | ΔTm at 20 µM [8] [°C] | ΔTm at 20 µM [9] [°C] | ITK protein levels (Western blot) [10] | rescue of AURKA degradation by cotreatment with proteasome inhibitor MG132 [11] | rescue of AURKA levels by cotreatment with neddylation inhibitor MLN4924 [11] | AURKA^HiBiT protein levels [11]
1 | CC(C)(C)OC(=O)NCCOCCOCCOCCOCCC(=O)N1CCN(c2cc(Nc3cc(C4CC4)[nH]n3)nc(Nc3ccc(CC#N)cc3)n2)CC1 [4-L] | 3.4 | 2.06 | 10.1 | 0.39 | 8.63 | 7.07 | 5.53 | 1.63 | 7.48 | – | – | – | –
2 | Cc1ncsc1-c1ccc(CNC(=O)[C@@H]2C[C@@H](O)CN2C(=O)[C@@H](NC(=O)CCOCCOCCOCCN2CCN(c3cc(Nc4cc(C5CC5)[nH]n4)nc(Nc4ccc(CC#N)cc4)n3)CC2)C(C)(C)C)cc1 [4-a] | – | – | – | – | – | – | – | – | – | dose-dependent degradation of ITK | complete rescue | only partial rescue | dose-dependent degradation of AURKA
3 | Cc1ncsc1-c1ccc(CNC(=O)[C@@H]2C[C@H](O)CN2C(=O)[C@@H](NC(=O)CCOCCOCCOCCN2CCN(c3cc(Nc4cc(C5CC5)[nH]n4)nc(Nc4ccc(CC#N)cc4)n3)CC2)C(C)(C)C)cc1 [4-a^neg] | – | – | – | – | – | – | – | – | – | did not cause any degradation of ITK | – | – | weak reduction of AURKA levels

The remaining lines, values ahead:

Row | ΔTm at 20 µM [1] [°C] | ΔTm at 20 µM [2] [°C] | ΔTm at 20 µM [3] [°C] | ΔTm at 20 µM [4] [°C] | ΔTm at 20 µM [5] [°C] | ΔTm at 20 µM [6] [°C] | ΔTm at 20 µM [7] [°C] | ΔTm at 20 µM [8] [°C] | ΔTm at 20 µM [9] [°C] | ITK protein levels (Western blot) [10] | rescue of AURKA degradation by cotreatment with proteasome inhibitor MG132 [11] | rescue of AURKA levels by cotreatment with neddylation inhibitor MLN4924 [11] | AURKA^HiBiT protein levels [11] | SMILES
4 | 3.98 | 2.55 | 8.44 | 0.5 | 8.95 | 2.2 | 1.62 | 2.09 | 8.01 | – | – | – | – | CC(C)(C)OC(=O)NCCCOCCOCCOCCCNC(=O)c1cc(Nc2cc(C3CC3)[nH]n2)nc(Nc2ccc(CC#N)cc2)n1 [5-L]
5 | – | – | – | – | – | – | – | – | – | dose-dependent degradation of ITK | complete rescue | only partial rescue | dose-dependent degradation of AURKA | Cc1ncsc1-c1ccc(CNC(=O)[C@@H]2C[C@@H](O)CN2C(=O)[C@@H](NC(=O)CCOCCOCCOCCOCCN2CCN(c3ccc(Nc4ncc(Cl)c(Nc5ccccc5C(N)=O)n4)cc3)CC2)C(C)(C)C)cc1 [6-b]
6 | – | – | – | – | – | – | – | – | – | did not cause any degradation of ITK | – | – | weak reduction of AURKA levels | Cc1ncsc1-c1ccc(CNC(=O)[C@@H]2C[C@H](O)CN2C(=O)[C@@H](NC(=O)CCOCCOCCOCCOCCN2CCN(c3ccc(Nc4ncc(Cl)c(Nc5ccccc5C(N)=O)n4)cc3)CC2)C(C)(C)C)cc1 [6-b^neg]
7 | 3.76 | 1.7 | 9.78 | 0.0755 | 6.97 | 3.24 | 2.01 | 1.72 | 6.85 | – | – | – | – | CCOC(=O)c1cc(Nc2cc(C3CC3)[nH]n2)nc(Nc2ccc(CC#N)cc2)n1 [compound 5]
